In one series the test system is H2052 (LATS2) cells. The series is described as follows: Gemcitabine and dFdU efflux by LC-MS/MS, H2052 cells. In kind it is in vitro ADME. The following applies: higher in H2052 (LATS2). From the text:
Are defects in the Hippo pathway the major cause of gemcitabine sensitivity? […] Restoring the levels of LATS2 in H2052 cells caused an increase in the mRNA and proteins levels of ABCG2 and CDA (FIGS. 23C, 36A-36M).

Series [1] has as its system Panc02.13-parental xenografts. The series is described as follows: Mouse xenograft, Panc02.13-parental. In kind it is in vivo. The settings on record: alternate days for two weeks. Here is the method:
To assess the gemcitabine response to Hippo pathway inactivation in tumors a mouse xenograft model of pancreatic carcinoma cells and patient-derived xenograft (PDX) models from a variety of solid tumors including human cancers from non-small cell lung, esophagus, breast, mesothelium, ovary, colon, head and neck, sarcoma, and cholangiocarcinoma were used (FIG. 30). In mouse xenograft studies, two human pancreatic cancer cell lines (Miapac2 and Panc02.13) expressing GFP or YAPS6A were injected into athymic mice. Both parental or GFP expressing cells grew rapidly, producing palpable tumors in 5-10 days. When the tumors were ˜200 mm^3 (as measured using a caliper), mice were randomized into treatment and control groups. The […] received i.p. saline injections on alternate days for two weeks, and the latter received gemcitabine (20 mg/kg in Miapaca2-YAPS6A and 50 mg/Kg in Panc02.13-YAPS6A cohorts).
Tumorigenicity in Nude Mice. All in vivo experiments were performed using 6-week-old to 8-week-old athymic nude mice. Mice were maintained in laminar flow rooms with constant temperature and humidity. Miapaca2 or Panc02.13 cells were inoculated subcutaneously (s.c.) into each flank of the mice. […] Tumor volumes (V) were calculated using the formula: V=AB2/2 (A, axial diameter; B, rotational diameter). […]

The test system of series [2] is pancreatic cancer cell lines. The series is described as follows: Kinetic cell growth assay, panel of pancreatic cancer cell lines. In kind it is cell-based, human. The following applies: for IC50: PDAC cell lines. The essentials: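 Pancreatic cancer cells seeded at 2-4×10^3 (low) or 15-20×10^3 (high density) per well; compounds added at several doses 24 h after plating. Confluence imaged live (Incucyte) hourly for 48-144 h or until DMSO controls reached 100% confluence.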

The subject of another series is Panc02.13 cells. The series is described as follows: Radiolabeled gemcitabine efflux. In kind it is in vitro ADME, human. The following applies: counts per μg protein; more in Hippo-ON. Here is the method:
Panc02.13 cells expressing GFP or YapS6A plasmid were treated with radiolabeled gemcitabine (0.5 μM) for one hour. Cells were washed twice with PBS and incubated in fresh medium. Medium was collected over the time course of 24 hours and radioactivity was measured using scintillation counter.
It was considered whether the Hippo pathway might affect the efflux of gemcitabine and/or its metabolites. To assess directly gemcitabine efflux in conditioned media of pancreatic cancer cells both radiolabeled gemcitabine and LC-MS/MS-based methods were used. Panc02.13 cells grown in highly crowded conditions (Hippo-ON) pumped out 2-3-fold more radiolabeled gemcitabine (counts per μg protein) compared with cells grown in less crowded conditions (Hippo-OFF) (FIG. 22A). Another pathway of inactivation and export is the enzymatic conversion of gemcitabine to a uracil derivative (2′,2′-difluorodeoxyuridine, dFdU) by deamination catalyzed by cytidine deaminase (CDA)(Veltkamp et al., 2008). The efflux of gemcitabine and its deaminated metabolite, dFdU was measured by LC-MS/MS (24) in Panc02.13 cells expressing YAPS6A or vector control after gemcitabine treatment (FIG. 22B).
Measuring gemcitabine efflux. […] Medium was collected over the time course of 24 hours and radioactivity was measured using scintillation counter.

From patent US20200216906A1, “METHODS AND COMPOSITIONS RELATING TO THE DIAGNOSIS AND TREATMENT OF CANCER” (PRESIDENT AND FELLOWS OF HARVARD COLLEGE, priority 2015, published 2020) come the findings set out here.

Structures can show the parent of a compound that is named as a salt. Where two headings read alike, the source gives them in different places. A value given as a limit tells only on which side of the number the result lay.

As to `Nc1ccn([C@@H]2O[C@H](CO)[C@@H](O)C2(F)F)c(=O)n1` [Gemcitabine, Gemcitabine hydrochloride], in the series with H2052 (LATS2) cells, the “Effluxed gemcitabine in media, H2052 (LATS2) vs parental H2052 (LATS2−/−)” value was about 10 fold. Further, the Growth of xenografts entry in series [1] is recorded as “no affect”. For the same compound, the IC50 is over 1000 nM in series [2] (Homo sapiens, Pancreatic cancer cell, dense culture, read-out: IC50, resistant in dense culture) and under 100 nM in series [2] (Homo sapiens, Pancreatic cancer cell, sparse culture, read-out: IC50, sensitive in sparse culture). Besides, in series [2] (Homo sapiens, Pancreatic cancer cell, low crowding conditions (10-25% confluence), all cell lines tested, read-out: EC50 on cell growth), the EC50 was under 200 nM. Moreover, the “Dependence of cellular response on cell crowding” value in series [2] (seven PDAC cell lines, threshold >100 fold difference in EC50) was “dependent on cell crowding”. The “Density dependence of efficacy” value in series [2] (seven pancreatic cancer cell lines, sparse and dense conditions) is listed as “density-dependent”. For the same compound, in the series on Panc02.13 cells, the “Radiolabeled gemcitabine pumped out, highly crowded vs less crowded” value is 2-3 fold.

As a reminder, the IC50 is the concentration at which inhibition is half-maximal. The term EC50 denotes the concentration that produces a half-maximal response.
